According to paper PMC10814857, “Functional Classification and Interaction Selectivity Landscape of the Human SH3 Domain Superfamily” (Cells, 2024):
Read-outs that look alike come from different tables or passages of the source. Peptide text beside a SMILES is read from it.

Experiments:
[1] = biological target: T1, NCK1-3Set-2 (N225E, W229G, K244E) SH3 domain (Homo sapiens, UniProt P16333, K244E/N225E/W229G); assay: Fluorescence polarization, SH3 domain mutant; type: binding; conditions: NCK1-3 Set-2 mutant, FP, 0.2 µM fluorescent peptide, quadratic fit
T1 construct: 190–252; GST (N); made in house; host or cells: Escherichia coli (CodonPlus, Rosetta, BL21(DE3)), pGEX4-T1
Protocol: (§1) The interaction between fluorescein-labeled proline-rich peptides (0.2 µM) and increasing concentrations of SH3 domains (ranging from 0 to 200 µM) was measured in a buffer (containing 30 mM Tris/HCl (pH 7.5), 5 mM MgCl2, and 3 mM DTT at 25 °C) in a total volume of 200 µL using a Fluoromax 4 fluorimeter in polarization mode and a quartz glass fluorescence cuvette (Hellma Ultra-Micro Cuvette 105.250-QS, Thermo Fisher Scientific, Waltham, MA USA). Excitation was performed at 470 nm and emission was measured at 560 nm. Dissociation constants (Kd) were determined by fitting the concentration-dependent binding curve to a quadratic ligand binding equation.
(§2) To better understand the role of the residues of SH3 domains in selective binding to PRPs, we have generated a multiple sequence alignment (Figure S7). It highlights the conserved and variable residues that are likely to be critical for the selectivity and affinity of the SH3 domain–PRM interactions. […] Two different sets of mutations were generated by substituting a combination of amino acids from ARHGAP12 and NCK1-3 for ABL2 and BIN1 and vice versa (Figure 3A; Table S1).
(§3) Figure S8. Mutational analysis of the SH3-fluorescent PRPs interactions using fluorescence polarization.
(§4) Fluorescent peptides (0.2 µM) were titrated with increasing concentrations of the corresponding SH3 domain mutants (see Figure 3A and Table S1). The x-axis represents SH3 domain concentrations as GST fusion proteins in µM, while the y-axis represents fluorescence polarization. The equilibrium dissociation constants (Kd) for the respective measurements were determined by fitting the titration curves to a quadratic ligand-binding equation […]
(§5) (solid lines). Error bars are derived from the fitting errors.
(§6) (1 picture or pasted object on this page, not shown here)

[2] = biological target: T2, ARHGAP12Set-1 (K28S, R30N, F62G, Y63W) SH3 domain (Homo sapiens, UniProt Q8IWW6, F62G/K28S/R30N/Y63W); assay: Fluorescence polarization, SH3 domain mutant; type: binding; conditions: ARHGAP12 Set-1 mutant; FP, 0.2 µM fluorescent peptide, quadratic fit
T2 construct: 12-74; GST (N); made in house; host or cells: Escherichia coli (CodonPlus, Rosetta, BL21(DE3)), pGEX4-T1
T2 sequence (Q8IWW6 12-74 K28S/R30N/F62G/Y63W): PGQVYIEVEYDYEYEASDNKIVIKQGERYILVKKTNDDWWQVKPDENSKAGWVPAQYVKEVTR
Protocol: as §1, §2, §3, §4, §5, §6

CC[C@H](C)[C@H](N)C(=O)N[C@@H](C)C(=O)NCC(=O)N1CCC[C@H]1C(=O)N1CCC[C@H]1C(=O)N[C@H](C(=O)N1CCC[C@H]1C(=O)N1CCC[C@H]1C(=O)N[C@@H](CCCNC(=N)N)C(=O)N[C@@H](CCC(N)=O)C(=O)N[C@@H](CO)C(=O)O)C(C)C [Peptide P9] (H-IAGPPVPPRQS-OH)
Kd [1]: did not differ from the NCK1-3^wt | Kd ([1]; read-out: Kd): 0.8 µM

C[C@H](N)C(=O)N[C@@H](Cc1ccccc1)C(=O)N[C@@H](Cc1ccccc1)C(=O)N1CCC[C@H]1C(=O)N[C@@H](CC(N)=O)C(=O)N[C@@H](CO)C(=O)N1CCC[C@H]1C(=O)N[C@@H](CO)C(=O)N1CCC[C@H]1C(=O)N[C@@H](Cc1ccccc1)C(=O)N[C@H](C(=O)N1CCC[C@H]1C(=O)N1CCC[C@H]1C(=O)N1CCC[C@H]1C(=O)N1CCC[C@H]1C(=O)N[C@@H](CCC(N)=O)C(=O)N[C@H](C(=O)N1CCC[C@H]1C(=O)N[C@@H](CO)C(=O)N1CCC[C@H]1C(=O)N[C@@H](Cc1c[nH]cn1)C(=O)NCC(=O)N[C@H](C(=O)O)[C@@H](C)O)[C@@H](C)O)[C@@H](C)O [Peptide P7] (H-AFFPNSPSPFTPPPPQTPSPHGT-OH)
Kd [2]: 23 µM
